Assay results as given in US11279733B2, “Peptide antibiotics” (priority 2017, dated 2022).
Values after ≈ are worked out from the molar mass of the structure shown. Starred links: 1 amine or outer side, 2 acyl side, 3 side chain; linkers in the order of their positions; H or OH if unused. Positions of bridges follow the written chain, without caps; N, C: chain ends. Non-standard residues stand in square brackets, D forms with d. Residues, ends and D or L forms follow the SMILES beside them. *: point of attachment. Decanoyl(3R-OH) = CCCCCCC[C@@H](O)CC(=O)*; azaDab = NCCN(N[*:1])C(=O)[*:2]; X1 = CCCCCCCN1CCC(C(=O)*)CC1; dDab = NCC[C@@H](N)C(=O)O; Dab = NCC[C@H](N)C(=O)O; Dap = NC[C@H](N)C(=O)O

Experiments:
A. baumannii ATCC 19606 = settings: ATCC 19606
Outline: (§1)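 Mid-log cultures grown in Mueller Hinton broth at 37° C were tested by 2-fold broth microdilution at 5×10^5 CFU/mL final. Compounds were dissolved in water and tested over a final range of 32 to 0.015 μg/mL.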

A. baumannii GN_093 PmxR = settings: GN 093 PmxR
Outline: as §1

E. coli ATCC 25922 = settings: ATCC 25922
Outline: as §1

K. pneumoniae ATCC 13883 = settings: ATCC 13883
Outline: as §1

[1] = tested on: K. pneumoniae ATCC 700603, MDR; settings: ATCC 700603
Outline: as §1

[2] = tested on: K. pneumoniae ATCC BAA-2146, NDM-1 pos; settings: ATCC BAA-2146
Outline: as §1

[3] = tested on: K. pneumoniae GN_102 PmxR; settings: GN 102 PmxR
Outline: as §1

[4] = tested on: K. pneumoniae GN_106, PmxR; settings: GN 106, PmxR
Outline: as §1

P. aeruginosa ATCC 27853 = settings: ATCC 27853
Outline: as §1

[5] = tested on: P. aeruginosa GN_043, PmxR
Outline: as §1

[6] = tested on: P. aeruginosa GN_105, PmxR; settings: GN 105, PmxR
Outline: as §1

[7] = tested on: S. aureus ATCC 25923, MSSA; settings: ATCC 25923
Outline: as §1

in vitro [8] = settings: human
Outline: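 Cells (4000/well, pre-attached 24 h) then received 5 μM resazurin for 2 h, with fluorescence measured at ex 560/em 590.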

in vitro [9] = settings: human; remark: listed apart in the source
Outline: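 HK2 cells were seeded at 2000 per well in DMEM/F12 with 10% FBS and left to attach for 24 h at 37 °C, 5% CO2. They were then exposed for 24 h to 3-fold peptide dilutions starting from 600 μM solutions in quadruplicate. LDH release was read at 450 nm, and CC50 was fitted from dose-response curves.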

in vitro [10] = settings: human; remark: listed apart in the source
Method: Cytotoxicity of the synthesised peptides was evaluated by comparison with commercially available colistin (polymyxin E), polymyxin B (Sigma chemical Co., St. Louis, Mo., U.S.A.) and synthetic octapeptin C4 by conducting lactate dehydrogenase (LDH) assay. CC50 values calculated based on curve fitting of dose dependent inhibition of cell growth represented the cytotoxicity of the peptide. Human kidney 2 (HK2) cells were seeded as 2000 cells per well in a 384 well cell culture plate in a final volume of 20 μL in DMEM/F12 medium (Invitrogen #11330057), in which 10% of FBS was added. Cells were incubated for 24 hours at 37° C., 5% CO2 to allow cells to attach to the plates. Similar conditions were employed for HEK293 and HepG2 cytotoxicity assays.
Cytotoxicity to HEK293 and HepG2 cells was determined using the resazurin assay (McMillian, M. K.; Li, L.; Parker, J. B.; Patel, L.; Zhong, Z.; Gunnett, J. W.; Powers, W. J.; Johnson, M. D. An improved resazurin-based cytotoxicity assay for hepatic cells; Cell Biol. Toxicol. 2002, 18, 157-173; O'Brien, J.; Wilson, I.; Orton, T.; Pognan, F. Investigation of the Alamar Blue (resazurin) fluorescent dye for the assessment of mammalian cell cytotoxicity. Eur. J. Biochem. 2000, 267, 5421-5426). In brief, HEK293 and HepG2 cells were seeded at 4000 cells/well in black-wall, clear-bottom 384-well plates (Corning, Australia) and incubated for 24 h at 37° C., 5% CO2. Compounds were then added into each well. After 24 h incubation, 5 μM resazurin was added per well and incubated at 37° C. for 2 h. Fluorescence intensity was then read using a Polarstar Omega with excitation/emission 560/590. The data was then analyzed using GraphPad Prism 6 software. CC50 values were determined using GraphPad Prism 6 software (Inc. La Jolla, Calif.).

Compound	MIC A. baumannii ATCC 19606 (A. baumannii ATCC 19606) [µg/mL]	MIC A. baumannii GN_093 PmxR (A. baumannii GN_093 PmxR) [µg/mL]	MIC E. coli ATCC 25922 (E. coli ATCC 25922) [µg/mL]	MIC K. pneumoniae ATCC 13883 (K. pneumoniae ATCC 13883) [µg/mL]	MIC K. pneumoniae ATCC 700603, MDR [1] [µg/mL]	MIC K. pneumoniae ATCC BAA-2146, NDM-1 pos [2] [µg/mL]	MIC K. pneumoniae GN_102 PmxR [3] [µg/mL]	MIC K. pneumoniae GN_106, PmxR [4] [µg/mL]	MIC P. aeruginosa ATCC 27853 (P. aeruginosa ATCC 27853) [µg/mL]	MIC P. aeruginosa GN_043, PmxR [5] [µg/mL]	MIC P. aeruginosa GN_105, PmxR [6] [µg/mL]	MIC S. aureus ATCC 25923, MSSA [7] [µg/mL]	CC50 at 24 h (in vitro [8]) [µM]	CC50 at 24 h (in vitro [9]) [µM]	CC50 at 24 h (in vitro [10]) [µM]	MIC A. baumannii Cl Ptyela 10073 4512:2, PmxR (A. baumannii GN_093 PmxR) [µg/mL]	MIC K. pneumoniae Cl Koprana 10065 0661:1 PmxR [3] [µg/mL]	MIC K. pneumoniae Cl 183-16357-20352, PmxR [4] [µg/mL]	MIC, P. aeruginosa FADDI-PA070, PmxR ([5]; strain name as in Table 11) [µg/mL]	MIC P. aeruginosa PA9704, PmxR [6] [µg/mL]
CCCCCCC[C@@H](O)CC(=O)N[C@H](CCN)C(=O)N[C@H]1CNC(=O)[C@H](CC(C)C)NC(=O)[C@H](CCN)NC(=O)[C@H](CCN)NC(=O)[C@H](CC(C)C)NC(=O)[C@@H](CC(C)C)NC(=O)[C@H](CCN)NC1=O [compound 633, 3(R)OH-nC9CO-D-Dab-cyc[L-Dap-L-Dab-D-Leu-L-Leu-L-Dab-L-Dab-L-Leu]] ({Decanoyl(3R-OH)}-[dDab][Dap][Dab][dL]L[Dab][Dab]L; lactam 2-C)	>32	>32	16 (≈ 16.1 µM)	>32	32 (≈ 32.1 µM)	8 (≈ 8.03 µM)	>32	>32	1 (≈ 1 µM)	16 (≈ 16.1 µM)	>32	>32	> 300	104	> 300	–	–	–	–	–
CCCCCCC[C@@H](O)CC(=O)N[C@H](CCN)C(=O)N[C@H]1CCNC(=O)[C@H](CC(C)C)NC(=O)[C@H](CCN)NC(=O)[C@H](CCN)NC(=O)[C@H](CC(C)C)NC(=O)[C@@H](Cc2ccc(O)cc2)NC(=O)[C@H](CCN)NC1=O [compound 5008, 3(R)OH-nC9CO-D-Dab-cyc[L-Dab-L-Dab-D-Tyr-L-Leu-L-Dab-L-Dab-L-Leu]] ({Decanoyl(3R-OH)}-[dDab][Dab][Dab][dY]L[Dab][Dab]L; lactam 2-C)	32 (≈ 30.2 µM)	32 (≈ 30.2 µM)	8 (≈ 7.54 µM)	16 (≈ 15.1 µM)	8 (≈ 7.54 µM)	16 (≈ 15.1 µM)	16 (≈ 15.1 µM)	16 (≈ 15.1 µM)	1 (≈ 0.943 µM)	2 (≈ 1.89 µM)	16 (≈ 15.1 µM)	32 (≈ 30.2 µM)	> 300	106	> 300	–	–	–	–	–
CCCCCCCN1CCC(C(=O)N[C@H](CCN)C(=O)N[C@H]2CCNC(=O)[C@H](CC(C)C)NC(=O)[C@H](CCN)NC(=O)[C@H](CCN)NC(=O)[C@H](Cc3ccccc3)NC(=O)[C@@H](CC(C)C)NC(=O)[C@H](CCN)NC2=O)CC1 [compound 6516, 1-heptylpiperidine-4-carboxylic acid-D-Dab-cyc[L-Dab-L-Dab-D-Leu-L-Phe-L-Dab-L-Dab-L-Leu]] (X1-[dDab][Dab][Dab][dL]F[Dab][Dab]L; lactam 2-C)	>32	–	16 (≈ 14.8 µM)	>32	>32	32 (≈ 29.5 µM)	–	–	1 (≈ 0.923 µM)	0.5 (≈ 0.461 µM)	2 (≈ 1.85 µM)	32 (≈ 29.5 µM)	> 300	223	> 300	–	–	–	–	–
CCCCCCC[C@@H](O)CC(=O)N[C@H](CCN)C(=O)N[C@H]1CCNC(=O)[C@H](CC(C)C)NC(=O)[C@H](CCN)NC(=O)[C@H](CCN)NC(=O)[C@@H](CC(C)C)NC(=O)[C@H](Cc2ccccc2)NC(=O)[C@H](CCN)NC1=O [compound 8640, 3(R)OH-nC9CO-D-Dab-cyc[L-Dab-L-DAB-L-Phe-D-Leu-L-Dab-L-Dab-L-Leu]] ({Decanoyl(3R-OH)}-[dDab][Dab][Dab]F[dL][Dab][Dab]L; lactam 2-C)	>32	>32	16 (≈ 15.3 µM)	>32	32 (≈ 30.6 µM)	>32	>32	>32	8 (≈ 7.66 µM)	>32	>32	32 (≈ 30.6 µM)	> 300	–	≥ 300	–	–	–	–	–
CCCCCCC[C@@H](O)CC(=O)N[C@H](CCN)C(=O)N[C@H]1CCNC(=O)[C@H](CC(C)C)NC(=O)N(CCN)NC(=O)[C@H](CCN)NC(=O)[C@H](CC(C)C)NC(=O)[C@@H](Cc2ccccc2)NC(=O)[C@H](CCN)NC1=O [compound 8782, 3(R)OH-nC9CO-D-Dab-cyc[L-Dab-L-DAB-D-Phe-L-Leu-L-Dab-azaDab-L-Leu]] ({Decanoyl(3R-OH)}-[dDab][Dab][Dab][dF]L[Dab][azaDab]L; lactam 2-C)	>32	–	16 (≈ 15.3 µM)	32 (≈ 30.6 µM)	32 (≈ 30.6 µM)	>32	–	–	2 (≈ 1.91 µM)	–	–	16 (≈ 15.3 µM)	> 300	–	> 300	>32	>32	>32	8 (≈ 7.65 µM)	32 (≈ 30.6 µM)
